Experimental data as given in BigSolDB 2.1.

Nc1ncnc2c1ncn2[C@@H]1O[C@H](COP(=O)(O)O)[C@@H](O)[C@H]1O
solubility (mole fraction)
Settings	in acetic acid	in ethanol	in methanol	in water
288.15 K	7.85e-05	5.3e-06	8.59e-06	–
288.2 K	–	–	–	0.000257
294.15 K	0.000122	5.61e-06	9.35e-06	–
294.2 K	–	–	–	0.000336
300.15 K	0.000186	6.75e-06	1.04e-05	–
300.2 K	–	–	–	0.000412
306.15 K	0.000276	7.73e-06	1.15e-05	–
306.2 K	–	–	–	0.000526
312.15 K	0.000395	9.24e-06	1.3e-05	–
312.2 K	–	–	–	0.000636
318.15 K	0.000564	1.06e-05	1.41e-05	–
318.2 K	–	–	–	0.000768
324.15 K	0.00075	1.24e-05	1.65e-05	–
324.2 K	–	–	–	0.000934
330.15 K	0.000967	1.54e-05	1.79e-05	–
